Tested on: vascular smooth muscle cells
Assay: 24 hour 3H-thymidine DNA synthesis inhibition assay compared with 24 hour 3H-leucine protein inhibition assay
Type: cell-based
Conditions: for therapeutic range (area under the curve of 3H-leucine assay greater than that of 3H-thymidine assay): 24 hour exposure, 5% FBS; for protein synthesis inhibition and cytotoxicity at concentrations where significant DNA synthesis inhibition occurs: Example 8, Figs. 10A-10C
Description: The ability of various therapeutic agents to inhibit DNA synthesis and protein synthesis in vascular smooth muscle cells was tested. ^3H-leucine and ^3H-thymidine uptake and cytotoxicity assays were conducted in accordance with the following protocols.
3H-leucine uptake: Vascular smooth muscle cells at 40,000 cells/ml were seeded in sterile 24 well plates at 1ml/well. The plates were incubated overnight at 37°C, 5% CO2, 95% air in a humidified atmosphere (saturation). Log dilutions of the therapeutic agent of interest were incubated with the vascular smooth muscle cells for 5 minutes or 24 hours. Samples of the therapeutic agents were diluted in DMEM: F-12 media (Whittaker Bioproducts, Walkersville, Maryland) with 5% fetal bovine serum (GBS. Gibco) and 5% Serum Plus® (JRH Biologicals). Following therapeutic agent incubation, the solution was aspirated, and 1ml/well of 0.5 microcurie/ml ^3H-leucine in leucine free DMEM (Dulbecco's Modified Eagle's Medium) with 5% Serum Plus® was added. The plates were re-incubated overnight at 37°C, 5% CO2 in a humidified atmosphere. The cells were visually graded using an inverted microscope using a scoring scale to determine viability and cell number. The 1 to 3 grade is based upon percent of cell viability and number compared to control wells, with 3=100%, 2=70%-100% and 1=0%-70%. A record of this scoring assisted in determining the immediate cytotoxic effect of the therapeutic agents. The media was then aspirated, and the cells were washed twice with cold 5% TCA. 400 microliters of 0.2M NaOH was added per well, and the plates were incubated for two hours at room temperature on a rotating platform. 200 microliters per well of the cell solution was transferred into plastic scintillation vials (Bio-Rad Laboratories), and 4 milliliters of Bio-Safe® II liquid scintillation fluid was added prior to vortexing. Vials were counted on a Beckman LS2800 Liquid Scintillation Counter interfaced with Beckman "Data Capture" software for conversion to a Lotus 1-2-3® file and analysis using Lotus 1-2-3®.
^3H-thymidine uptake: Vascular smooth muscle cells were incubated in complete media with 5% FBS (Gibco) overnight at 37°C in a humidified, 5% CO2 environment in sterile 24 well plates. The media was aspirated from the wells and serum free media supplemented with growth factors (DMEM: F-12 basal media supplemented with growth factor cocktail catalog number I1884 which contains insulin (5 micrograms/ml), transferrin (5 micrograms/ml) and sodium selenite (5 nanograms/ml) available from Sigma Chemical, St. Louis, Missouri) was added. Cells were incubated in this media for 24 hours. For a 5 minute therapeutic agent exposure, log dilutions of the therapeutic agent were incubated with the cells in complete media. After 5 minutes and media aspiration, 1 ml/well of 1.0 microcurie/ml ^3H-thymidine dispersed in complete media was added. The 24 hour exposure involved incubation of the cells with 1 ml/well of 1.0 microcurie/ml of ^3H-thymidine dispersed in complete media and log dilutions of the therapeutic agent being tested. In both exposure trials, the cells were then incubated overnight at 37°C in a humidified, 5% CO2 environment. The cells were visually scored for viability and cell number. […] Vials were counted on a Beckman LS2800 Liquid Scintillation Counter interfaced with Beckman "Data Capture" software for conversion to a Lotus 1-2-3° file and analysis using Lotus 1-2-30®.

Row | Structure (SMILES) | therapeutic range (area under the curve of 3H-leucine assay greater than that of 3H-thymidine assay) | protein synthesis inhibition and cytotoxicity at concentrations where significant DNA synthesis inhibition occurs
1 | O=[N+]([O-])OCC(CO[N+](=O)[O-])O[N+](=O)[O-] [nitroglycerin] | showed an available therapeutic range | minimal protein synthesis inhibition and cytotoxicity
2 | CN[C@@H]1C[C@H]2O[C@@](C)([C@@H]1OC)n1c3ccccc3c3c4c(c5c6ccccc6n2c5c31)C(=O)NC4 [staurosporin] | showed an available therapeutic range | –
3 | Cc1ccc(C(=O)Nc2ccc(S(=O)(=O)O)c3cc(S(=O)(=O)O)cc(S(=O)(=O)O)c23)cc1NC(=O)c1cccc(NC(=O)Nc2cccc(C(=O)Nc3cc(C(=O)Nc4ccc(S(=O)(=O)O)c5cc(S(=O)(=O)O)cc(S(=O)(=O)O)c45)ccc3C)c2)c1 [suramin] | showed an available therapeutic range | minimal protein synthesis inhibition and cytotoxicity
